Test results from PMC4377999, “Kalkitoxin Inhibits Angiogenesis, Disrupts Cellular Hypoxic Signaling, and Blocks Mitochondrial Electron Transport in Tumor Cells” (Marine Drugs, 2015).

Biological target: T1, mitochondrial electron transport chain complex I (NADH-ubiquinone oxidoreductase) (Homo sapiens, UniProt O75251+O75306+P03886)
T1 construct: gene NDUFS2; native multi-subunit complex in digitonin-permeabilized T47D cells
Assay: oxygen consumption (Clark-type electrode) in permeabilized T47D cells with malate/pyruvate, succinate bypass; […]
Assay type: cell-based

C=C[C@@H]1CSC(C[C@@H](C)[C@@H](C)C[C@H](C)CCN(C)C(=O)[C@H](C)CC)=N1 [kalkitoxin]
oxygen consumption (Clark-type electrode) in permeabilized T47D cells with malat: kalkitoxin potently suppresses mitochondrial respiration in tumor cells by selectively inhibiting ETC complex I
